Patent publication US8101352B2, “Detection of ESR1 amplification in breast cancer” (Universitatsklinikum Hamburg-Eppendorf, priority 2006, dated 2012)

Test system: breast cancer patients
Assay: Prognostic relevance of ESR1 alterations in breast cancer treated with Tamoxifen (tissue microarray FISH/IHC with survival analysis)
Format: in vivo, human
From the text: Contingency table analysis and Chi-square tests were used to study the relationship between histologic tumor type, grade, stage and gene amplification. Survival curves were plotted according to Kaplan-Meier. A log rank test was applied to examine the relationship between gene amplifications and patient survival.
2.1 The general results obtained by CGH were verified by fluorescence in situ hybridization (FISH) using existing tissue microarrays. A breast cancer Prognosis Tissue Microarray containing more than 2517 breast tissues was analyzed. […]
2.3 The TMA sections were treated according to the Paraffin Pretreatment Reagent Kit protocol (Vysis, Downers Grove, Ill.) before hybridization. […] In a second more refined analysis FISH signal numbers of the ESR1 gene and centromere 6 were counted in each tissue spot. […]
3.1 Immunohistochemical detection of the estrogen receptor alpha protein was performed using the above described TMAs and antibody NCL-L-ER-6F11 as a primary antibody (Novocastra, Newcastle, UK). […] In brief, intensity of the estrogen receptor staining was recorded in a 4-step scale (0-3) and the fraction of ER positive tumor cells in a 5-step (1-5) scale. […]

With CC/C(=C(\c1ccccc1)c1ccc(OCCN(C)C)cc1)c1ccccc1 [Tamoxifen] the “prognosis of Tamoxifen treated patients with ESR1 amplification” value (Tamoxifen monotherapy after surgery, ESR1 amplified versus ER positive by IHC without ESR1 amplification, p<0.0001 (FIG. 4)) was “significantly better” and the “overall survival of patients with ESR1-amplified tumors under anti-estrogen therapy with Tamoxifen” value (compared to patients with tumors not exhibiting ESR1 amplification (FIG. 4)) was “significantly increased”.
